Assay results from patent US8609602B2, “Cleaning solution” (priority 2010, dated 2013).
Like-named read-outs stand apart in the source and are kept apart here.

Experiments:
[1] = MSDS / known values; cited from earlier work
[2] = type: physicochemical; settings: for Solubility of added stearic acid in detergent solution (in words): stearic acid 10-20 mg/ml, overnight at 40° C.
Method: Detergents classified as ionic and non-ionic were tested, as well as carbohydrate and polyethylene glycol based non-ionic detergents.

[3] = 6.7% TRIZMA in 67% aqueous 2-propanol; (10% w/v)
Method: Different detergent or detergent/base stock solutions were mixed in culture tubes, vortexed for 1 minute, and allowed to completely dissolve over an additional 30 minutes. The stock solutions were either used undiluted or diluted with additional water or alcohol in predetermined ratios. Diluted solutions were again mixed by vortexing for 1 minute and then allowing the solution to sit for 30 minutes.
A representative aliphatic acid, the fatty acid stearic acid, was added to the tube in a predetermined quantity between 10 mg/ml and 20 mg/ml. […] Solutions were then cooled to room temperature (RT) and after 6 hours, they were evaluated again for evidence of precipitation.
The following experiment is similar to Experiment 1, except that addition of a non-toxic buffer and/or a short-chained alcohol was investigated to attempt to improve upon the above results. Various bases and alcohols were tested. […] A representative non-toxic base, TRIZMA® (SIGMA-ALDRICH®, St. Louis, Mo.), was first tested (also known as TRIS, and Tris(hydroxymethyl)aminomethane). […] For this test, the amount of contaminating aliphatic acid, stearic acid, added to the solution was increased to 100 mg/ml.

CCCCCCCCCCCC[N+](C)(C)[O-] [C-12 dimethyl amine oxide, n-dodecyl-N,N-dimethylamine-N-oxide]
LD50 [1]: 5000 mg/kg
Parts surfactant needed to dissolve stearic acid ([2]; aqueous detergent solution): 4 parts surfactant could dissolve 1 part stearic acid
Solubility of added stearic acid in detergent solution (in words) [2]: Complete solubility at all concentrations of added stearic acid
Solubility of added stearic acid in detergent solution (in words) ([2]; listed as n-dodecyl-N,N-dimethylamine-N-oxide): quantitatively facilitated the solubilization

Tris(hydroxymethyl)aminomethane [TRIZMA base]
Stearic acid completely solubilized by TRIZMA base without detergent [3]: 100 mg/mL
